# Results from PubChem BioAssay AID1259411 (Chemical Carcinogenesis Research Information System (CCRIS), 2018).
# Activity calls are given as the source filed them. No rule for the calls is given here.
# Test system: rodent carcinogenicity bioassays, tumor incidence
# Experiment: CCRIS carcinogenicity studies
# Conditions: Dose: 0, Dose: 0
# Outline: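 Archive of carcinogenicity, mutagenicity, tumor promotion and tumor inhibition results drawn from journals, NCI reports and other sources, expert-reviewed; covers 1985-2011 and is no longer updated.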
smiles,measurement,setting,value
Cc1ccc(/C(=C\CN2CCCC2)c2ccccn2)cc1,carcinogen call,"Species: MOUSE, Strain/Sex: B6C3F1/FEMALE, Route: ORAL, 500, 2000, 4000 PPM IN DIET FOR 2 YR (STUDY DURATION: 2 YR), 500, 2000, 4000 PPM IN DIET FOR 2 YR (STUDY DURATION: 2 YR)",inactive; negative
same,carcinogen call,"Species: MOUSE, Strain/Sex: B6C3F1/MALE, Route: ORAL, 500, 2000, 4000 PPM IN DIET FOR 2 YR (STUDY DURATION: 2 YR), 500, 2000, 4000 PPM IN DIET FOR 2 YR (STUDY DURATION: 2 YR)",inactive; negative
same,carcinogen call,"Species: RAT, Strain/Sex: F344/FEMALE, Route: ORAL, 250, 1000, 2000 PPM IN DIET FOR 103 WK (STUDY DURATION: 104 WK), 250, 1000, 2000 PPM IN DIET FOR 103 WK (STUDY DURATION: 104 WK)",inactive; negative
same,carcinogen call,"Species: RAT, Strain/Sex: F344/MALE, Route: ORAL, 250, 1000, 2000 PPM IN DIET FOR 103 WK (STUDY DURATION: 104 WK), 250, 1000, 2000 PPM IN DIET FOR 103 WK (STUDY DURATION: 104 WK)",inactive; negative
Cc1cccc(C)c1NC(=O)CN1CCCC1=O,carcinogen call,"Species: MOUSE, Strain/Sex: B6C3F1/FEMALE, Route: ORAL, 30, 90, 270 MG/KG/D IN DIET FOR 104 WK (STUDY DURATION: 104 WK), 30, 90, 270 MG/KG/D IN DIET FOR 104 WK (STUDY DURATION: 104 WK)",inactive; negative
same,carcinogen call,"Species: MOUSE, Strain/Sex: B6C3F1/MALE, Route: ORAL, 30, 90, 270 MG/KG/D IN DIET FOR 104 WK (STUDY DURATION: 104 WK), 30, 90, 270 MG/KG/D IN DIET FOR 104 WK (STUDY DURATION: 104 WK)",inactive; negative
same,carcinogen call,"Species: RAT, Strain/Sex: F344/FEMALE, Route: ORAL, 200, 600, 1800 PPM IN DIET FOR 104 WK (STUDY DURATION: 104 WK), 200, 600, 1800 PPM IN DIET FOR 104 WK (STUDY DURATION: 104 WK)",inactive; negative
same,carcinogen call,"Species: RAT, Strain/Sex: F344/MALE, Route: ORAL, 200, 600, 1800 PPM IN DIET FOR 104 WK (STUDY DURATION: 104 WK), 200, 600, 1800 PPM IN DIET FOR 104 WK (STUDY DURATION: 104 WK)",inactive; negative
O=C(CO)[C@@H](O)[C@H](O)[C@H](O)CO,carcinogen call,"Species: RAT, Strain/Sex: SPRAGUE-DAWLEY/MALE, Route: ORAL, 120 G/L IN DRINKING WATER AD LIBITUM FOR 30 WK (STUDY DURATION: 501 D)",inactive; negative
CN(C=O)N=O,carcinogen call,"Species: HAMSTER, Strain/Sex: SYRIAN/FEMALE, Route: GAVAGE, 0.6 MG IN CORN OIL 1/WK FOR 15 WK (STUDY DURATION: 30 WK)",inactive; negative
same,carcinogen call,"Species: HAMSTER, Strain/Sex: SYRIAN/MALE, Route: GAVAGE, 0.6 MG IN CORN OIL 1/WK FOR 15 WK (STUDY DURATION: 35 WK), Tumor Site: Type of Lesion: FORESTOMACH: TUMOR",active; positive
same,carcinogen call,"Species: RAT, Strain/Sex: F344/FEMALE, Route: GAVAGE, 0.6 MG IN CORN OIL 2/WK FOR 20 WK (STUDY DURATION: 40 WK), Tumor Site: Type of Lesion: FORESTOMACH: TUMOR, ESOPHAGUS: TUMOR",active; positive
same,carcinogen call,"Species: RAT, Strain/Sex: F344/MALE, Route: GAVAGE, 0.6 MG IN CORN OIL 2/WK FOR 20 WK (STUDY DURATION: 40 WK), Tumor Site: Type of Lesion: FORESTOMACH: TUMOR",active; positive
CCCCCN(N=O)C(N)=O,carcinogen call,"Species: RAT, Strain/Sex: F344/FEMALE, Route: GAVAGE, 16 MG/ML (TOTAL DOSE 0; 2 MMOL) IN 2 ML ETHYL ACETATE AND CORN OIL (1:2) 2/WK FOR 50 WK (STUDY DURATION: LIFETIME), 16 MG/ML (TOTAL DOSE 0; 2 MMOL) IN 2 ML ETHYL ACETATE AND CORN OIL (1:2) 2/WK FOR 50 WK (STUDY DURATION: LIFETIME), Tumor Site: Type of Lesion: FORESTOMACH: SQUAMOUS CELL CARCINOMA, LUNG: TUMOR, UTERUS: TUMOR, Tumor Site: Type of Lesion: FORESTOMACH: SQUAMOUS CELL CARCINOMA, LUNG: TUMOR, UTERUS: TUMOR",active; positive
same,carcinogen call,"Species: RAT, Strain/Sex: F344/FEMALE, Route: GAVAGE, 16 MG/ML IN 0.2 ML ETHYL ACETATE AND CORN OIL 2/WK FOR 50 WK (STUDY DURATION: LIFESPAN), Tumor Site: Type of Lesion: FORESTOMACH: TUMOR, LUNG: TUMOR, UTERUS: TUMOR, Tumor Site: Type of Lesion: FORESTOMACH: TUMOR, LUNG: TUMOR, UTERUS: TUMOR",active; positive
same,carcinogen call,"Species: RAT, Strain/Sex: F344/MALE, Route: GAVAGE, 16 MG/ML (TOTAL DOSE 0; 2 MMOL) IN 2 ML ETHYL ACETATE AND CORN OIL (1:2) 2/WK FOR 50 WK (STUDY DURATION: LIFETIME), 16 MG/ML (TOTAL DOSE 0; 2 MMOL) IN 2 ML ETHYL ACETATE AND CORN OIL (1:2) 2/WK FOR 50 WK (STUDY DURATION: LIFETIME), Tumor Site: Type of Lesion: FORESTOMACH: SQUAMOUS CELL CARCINOMA, LUNG: TUMOR, BODY CAVITY: MESOTHELIOMA, Tumor Site: Type of Lesion: FORESTOMACH: SQUAMOUS CELL CARCINOMA, LUNG: TUMOR, BODY CAVITY: MESOTHELIOMA",active; positive
same,carcinogen call,"Species: RAT, Strain/Sex: F344/MALE, Route: GAVAGE, 16 MG/ML IN 0.2 ML ETHYL ACETATE AND CORN OIL 2/WK FOR 50 WK (STUDY DURATION: LIFESPAN), Tumor Site: Type of Lesion: FORESTOMACH: TUMOR, LUNG: TUMOR: PERITONEUM: MESOTHELIOMA, SKIN: TUMOR, Tumor Site: Type of Lesion: FORESTOMACH: TUMOR, LUNG: TUMOR: PERITONEUM: MESOTHELIOMA, SKIN: TUMOR",active; positive
Cc1ccc(N)cc1N,carcinogen call,"Species: MOUSE, Strain/Sex: B6C3F1/FEMALE, Route: ORAL, 100, 200 PPM IN DIET FOR 101 WK, 100, 200 PPM IN DIET FOR 101 WK, Tumor Site: Type of Lesion: HEMATOPOIETIC SYSTEM (LEUKEMIA), LYMPHATIC SYSTEM: LYMPHOMA, LIVER: HEPATOCELLULAR CARCINOMA, Tumor Site: Type of Lesion: HEMATOPOIETIC SYSTEM (LEUKEMIA), LYMPHATIC SYSTEM: LYMPHOMA, LIVER: HEPATOCELLULAR CARCINOMA",active; positive
same,carcinogen call,"Species: MOUSE, Strain/Sex: B6C3F1/MALE, Route: ORAL, 100, 200 PPM IN DIET FOR 101 WK, 100, 200 PPM IN DIET FOR 101 WK",inactive; negative
same,carcinogen call,"Species: RAT, Strain/Sex: F344/FEMALE, Route: ORAL, 79, 171 PPM TWA, IN DIET FOR 84-103 WK, 79, 171 PPM TWA, IN DIET FOR 84-103 WK, Tumor Site: Type of Lesion: INTEGUMENTARY SYSTEM (SUBCUTANEOUS TISSUE): FIBROMA, FIBROSARCOMA, LIVER: HEPATOCELLULAR CARCINOMA OR NEOPLASTIC NODULE;, Tumor Site: Type of Lesion: INTEGUMENTARY SYSTEM (SUBCUTANEOUS TISSUE): FIBROMA, FIBROSARCOMA, LIVER: HEPATOCELLULAR CARCINOMA OR NEOPLASTIC NODULE",active; positive
same,carcinogen call,"Species: RAT, Strain/Sex: F344/MALE, Route: ORAL, 79, 176 PPM TWA, IN DIET FOR 79-103 WK, 79, 176 PPM TWA, IN DIET FOR 79-103 WK, Tumor Site: Type of Lesion: INTEGUMENTARY SYSTEM (SUBCUTANEOUS TISSUE): SQUAMOUS CELL CARCINOMA, FIBROMA, LIPOMA, LIVER: HEPATOCELLULAR CARCINOMA OR",active; positive
